Assay results as given in US10251874B2, “Crystalline forms of a JAK inhibitor compound” (THERAVANCE BIOPHARMA R&D IP, LLC, priority 2017, dated 2019).
Where two headings read alike, the source gives them in different places.

Key:
[1] = system: IL-13 induced STAT6 phosphorylation in BEAS-2B human lung epithelial cells; test: Assay 2: Cellular JAK potency assay: inhibition of IL-13 (AlphaScreen); type: cell-based; details: BEAS-2B cells, read-out: pIC50, inhibition of IL-13 induced STAT6 phosphorylation (converted)
Description: The AlphaScreen JAM cellular potency assay was carried out by measuring interleukin-13 (IL-13, R&D Systems) induced STAT6 phosphorylation in BEAS-2B human lung epithelial cells (ATCC). The anti-STAT6 antibody (Cell Signaling Technologies) was conjugated to AlphaScreen acceptor beads (Perkin Elmer), while the anti-pSTAT6 (pTyr641) antibody (Cell Signaling Technologies) was biotinylated using EZ-Link Sulfo-NHS-Biotin (Thermo Scientific).
BEAS-2B cells were grown at 37° C. in a 5% CO2 humidified incubator in 50% DMEM/50% F-12 medium (Life Technologies) supplemented with 10% FBS (Hyclone), 100 U/mL penicillin, 100 μg/mL streptomycin (Life Technologies), and 2 mM
GlutaMAX (Life Technologies). On day 1 of the assay, cells were seeded at a 7,500 cells/well density in white poly-D-lysine-coated 384-well plates (Corning) with 25 μL medium, and were allowed to adhere overnight in the incubator. […] After a minimum of 2 h incubation, the assay plates were read on the EnVision plate reader. AlphaScreen luminescence signals were recorded and utilized to calculate the percent inhibition values based on DMSO and background controls.
For dose-response analysis, percent inhibition data were plotted vs. compound concentrations, and IC50 values were determined from a 4-parameter robust fit model with the Prism software. Results may also be expressed as the negative logarithm of the IC50 value, pIC50.

[2] = Assay 12: Ocular pharmacokinetics in rabbit eyes; type: in vivo, New Zealand white rabbits; details: for half-life: New Zealand white, vitreous, intravitreal solution formulation, 200 μg/eye and 50 μg/eye
Description: The objective of this assay was to determine the pharmacokinetics of the compound 1 in rabbit ocular tissues.
The compound of the invention, 5-ethyl-2-fluoro-4-(3-(5-(1-methylpiperidin-4-yl)-4,5,6,7-tetrahydro-1H-imidazo[4,5-c]pyridin-2-yl)-1H-indazol-6-yl)phenol (1) was dissolved in either 10% 2-hydroxypropyl-β-cyclodextrin to attain a target concentration of 4 mg/mL or in purified water to attain a target concentration of 1 mg/mL . Bilateral intravitreal injection (50 μL/eye) of the solution of test compound was administered to New Zealand white rabbits in two dose groups, 200 μg/eye and 50 μg/eye, respectively, for the cyclodextrin and water vehicle formulations, respectively. The test compound concentration was measured in ocular tissues: vitreous, aqueous, retina/choroid and iris-ciliary body at pre-determined time points post injection (30 min, 4 h, 1 d, 3 d, 7 d, 14 d). Two rabbits (four eyes) were dosed for each time point.
A suspension formulation was prepared by combining crystalline compound 1 of Example 2 with 0.5% hydroxypropyl methylcellulose (HPMC E5)+0.02% Tween 80 to attain a target concentration of 10 mg/mL. Bilateral intravitreal injection (50 μL/eye) of the suspension of test compound was administered to New Zealand white rabbits (500 μg/eye). The test compound concentration was measured in ocular tissues as in the […] at 30 min, 2 wks, 4 wks, 6 wks, and 8 wks post injection. […] The behavior is consistent with the solubility of compound 1 in the vehicle and the ocular pharmacokinetic behavior in the solution formulation. The drug concentration in plasma was measured and found to be at least 3 orders of magnitude lower than the concentration in vitreous tissue.

[3] = system: IL-6 induced pSTAT3 in retina/choroid; test: Assay 13: Pharmacodynamic assay: inhibition of IL6-induced pSTAT3 in rats; type: in vivo, Lewis rats; details: rat, IVT suspension of crystalline compound 1 of Example 2, 15 μg dose, 3 day pre-treatment
Description: The ability of a single intravitreal administration of test compound to inhibit IL-6 induced pSTAT3 was measured in rat retina/choroid homogenates.
Suspension formulations were prepared by combining crystalline compound 1 of Example 2 with 0.5% hydroxypropyl methylcellulose (HPMC E5 LV), 0.02% Tween 80, and 0.9% sodium chloride in purified water to attain target concentrations of 3 mg/mL and 10 mg/mL.
Female Lewis rats were intravitreally (IVT) dosed (5 μL per eye) with the suspension formulations or with the drug vehicle. Three days later, IL-6 (Peprotech; 0.1 mg/mL; 5 μL per eye) or vehicle was intravitreally administered to induce pSTAT3.
Ocular tissues were dissected one hour after the second IVT injection with IL-6. The retina/choroid tissues were homogenized and pSTAT3 levels were measured using an ELISA (Cell Signaling Technology). The percent inhibition of IL-6-induced pSTAT3 was calculated in comparison to the vehicle/vehicle and vehicle/IL-6 groups. Inhibition of greater than 100% reflects a reduction of pSTAT3 levels to below those observed in the vehicle/vehicle group.

## CCc1cc(O)c(F)cc1-c1ccc2c(-c3nc4c([nH]3)CCN(C3CCN(C)CC3)C4)n[nH]c2c1 [Compound 1, 5-ethyl-2-fluoro-4-(3-(5-(1-methylpiperidin-4-yl)-4,5,6,7-tetrahydro-1H-imidazo[4,5-c]pyridin-2-yl)-1H-indazol-6-yl)phenol]
[1]
  IC50: 6.31 nM
[2]; read-out: half-life of initial decrease in concentration in vitreous tissue (converted)
  half-life: ~720 min
[2]; read-out: terminal half-life in vitreous tissue (converted)
  half-life: ~5180 min
[2]; intravitreal suspension of crystalline compound 1 of Example 2, 500 μg/eye, 30 min to 6 weeks
  clearance rate (linear decrease in drug concentration in the vitreous): approximately 3 μg/mL/day
[3]
  inhibition of IL-6-induced pSTAT3 in retina/choroid tissues: 33%
